Legend:
[1] = target: Menin/MLL-4-43 peptide interaction (Homo sapiens (Human), UniProt O00255); test: Menin-MLL interaction inhibitory activity assay (fluorescence polarization competition); assay type: binding; conditions: FITC-MLL4-43-peptide, Menin recombinant protein
Experimental: Test Example 1: Menin-MLL Interaction Inhibitory Activity Assay
The inhibition of Menin/MLL-4-43 peptide interaction by small molecule inhibitors was quantitatively detected by fluorescence polarization competition assay. The experiment was performed in a 384-well plate (Corning, Cat #3575) using a reaction buffer consisting of 50 mM Tris, pH 7.5, 50 mM NaCl, and 1 mM DTT. A 40 μL reaction system included 10 μL of 8 nM Menin recombinant protein and 10 μL of the test compound at different concentrations. The compound was pre-incubated with Menin protein for 15 min, and then 20 μL of 10 nM FITC-MLL4-43-peptide was added. After incubation on a shaker at 25° C. for 60 min, the fluorescence polarization signal (FP 485 520 520) was read using BMG PHERAStar detection. The experimental data was analyzed and processed by GraphPad Prism 6 software to obtain the IC50 value. The control compound 1 was prepared by referring to the method of Example 64 in WO2017214367.

MV4-11 = test: Cell proliferation inhibition (CellTiter-Glo), MV4-11; assay type: cell-based; conditions: MV4-11 cells
Experimental: (§1) Test Example 2: Test of the Inhibitory Ability of Menin-MLL Interaction Inhibitors on Cell Proliferation
(§2) The inhibitory ability of the compounds of the present disclosure on the proliferation of tumor cell lines (including cell lines containing MLL fusion protein such as MV4-11, MOLM-13, THP-1 and NOMO-1, control cell lines without MLL fusion protein such as HL-60, K562 and MOLM-16, and cell lines containing NPM1 mutation such as OCI-AML3) was evaluated by using the cell viability analysis method. The cells were plated in 96-well plates at a certain concentration (e.g., 5,000-20,000 cells/well), and then an equal volume of culture medium containing 2 times the final concentration of the test compound (the final concentration ranging 10 from 1 nM to 10 μM) was added. The plates were placed in an incubator and cultured at 37° C. and 5% CO2 for 72-168 h. Before the test, an equal volume of CellTiter-Glo® Luminescent reagent was added, and the plate was incubated at room temperature for 10 min before detection using an ELISA reader (BMG LABTECH). The data were analyzed using GraphPad Prism software to obtain the IC50 value and compound fitting curve. The control compound 1 was prepared by referring to the method of Example 64 in WO2017214367.

MOLM-13 = test: Cell proliferation inhibition (CellTiter-Glo), MOLM-13; assay type: cell-based; conditions: Homo sapiens, MOLM-13, 168 h, MOLM-13 cells
Experimental: as §1, §2

OCI-AML3 = test: Cell proliferation inhibition (CellTiter-Glo), OCI-AML3 (NPM1 mutation); assay type: cell-based; conditions: Homo sapiens, OCI-AML-3, 168 h, OCI-AML3 cells
Experimental: as §1, §2

[2] = Pharmacokinetics test in mouse; assay type: in vivo, ICR mice; conditions: mice, p.o. 10 mg/kg; for AUC(0-t) / half-life / Cmax: male, ICR, mouse, plasma, po, 10 mg/kg; for Cmax: read-out: Cmax; for F, %: 1 mg/kg for intravenous injection
From the text: Test Example 4. In Vivo Pharmacokinetic Study
Test purpose: To determine the pharmacokinetic properties of some of the example compounds of the present disclosure in mice, rats and dogs after single intravenous injection (i.v.) and oral gavage (i.g.) administration by LC-MS/MS method.
Research methods: An appropriate amount of compound was weighed and prepared into a transparent clear solution of a certain concentration using 0.9% sodium chloride injection and 1.5 equivalents of 1M HCl aqueous solution based on the molar number of the compound. After SPF male ICR mice, SPF male SD rats, and male beagle dogs were fasted overnight, the test compound solution was given by intravenous injection and oral gavage at the corresponding dose. Anticoagulated whole blood of the test animals was collected at 5 min, 15 min, 30 min, 1 h, 2 h, 4 h, 8 h, and 24 h after administration, and plasma was separated. Plasma samples at each time point were detected by LC-MS/MS, and the plasma concentration of the compound was determined by the standard curve correction method. Phoenix WinNonlin 5.2 non-compartmental model was used to calculate the pharmacokinetic parameters of terminal elimination half-life (t½), blood peak concentration (Cmax), area under the concentration-time curve (AUC), clearance (CL), and bioavailability (F %), which was directly obtained from the serum concentration results. Blood drug concentration and pharmacokinetic parameters are expressed as mean±standard deviation (X±SD). The specific test protocols for each species are as follows.
Pharmacokinetics Test in Mouse
Test animals: SPF male ICR mice, weighing 25-30 g, 12 mice/compound, purchased from Chengdu Dossy Experimental Animal Co., Ltd.
Test design: On the day of the test, ICR mice were randomly divided into groups according to body weight, fasted but with free water for 12-14 h one day before administration, and fed 2 h after administration.
Preparation of test compound solution: The concentration of the test compound for oral gavage was 1 mg/mL. An appropriate amount of compound was weighed and prepared into a 1 mg/mL transparent clear solution using 0.9% sodium chloride injection and 1.5 equivalents of 1M HCl aqueous solution. The concentration of the test compound for intravenous injection was 0.2 mg/mL. The 1 mg/mL transparent clear solution was diluted to a concentration of 0.2 mg/mL using 0.9% sodium chloride injection. The volume of 1 M HCl solution added was calculated as: volume of 1 M HCl solution added […]=weighed amount of compound (mg)/molecular weight×1.5×1000. The amount added during preparation must not exceed the calculated value.
The test substance was administered as follows: intravenous injection: 1 mg/kg of dose, 5 mL/kg of volume, 6 mice; oral gavage: 10 mg/kg of dose, 10 mL/kg of volume, 6 mice.
Sample collection: Blood (40-50 μl) was collected in anticoagulant tubes sprayed with EDTA-K2 through the orbital venous plexus at 5 min, 15 min, 30 min, 1 h, 2 h, 4 h, 8 h, and 24 h after administration, and centrifuged at 10,000 rpm for 20 min within 1 h (the blood was saved on wet ice before and after centrifugation). The supernatant, which was plasma, was collected and frozen in a refrigerator at −20° C. or below for LC-MS/MS analysis of Full PK of male ICR mice (2 mice per group, 4 blood collection time points per mouse, crossover).

[3] = Stability in mouse liver microsomes; assay type: in vitro ADME; conditions: 1.00 μM compound, NADPH; for half-life at 1 μM: liver microsomes, pH 7.4, 0.5 mg/mL microsomal protein, read-out: Half life T1/2, mouse liver microsomes
Experimental: (§3) Test Example 3: Test of Stability of Compounds in Liver Microsome
(§4) Test purpose: To determine the stability of some of the compounds of the present disclosure in mouse, dog and human liver microsomes by LC-MS/MS method.
(§5) Test materials: The test drugs were in-house prepared example compounds of the present disclosure; the positive reference compound SNDX-5613 was prepared by the method of Example 253 in patent WO2017214367; the control compound 1 was prepared by the method of Example 64 in WO2017214367; liver microsomes were purchased from CORNING.
(§6) The total volume of each incubation system was approximately 45 μL, and the medium was 100 mM phosphate buffer (PBS, pH 7.4), including liver microsomal protein at a final concentration of 0.5 mg/mL, 1.00 μM compound and 2.00 mM NADPH, and the organic phase content was <1%. Incubation was performed in a 37° C. incubator, and 135 μL of ice-cold acetonitrile was added after 0, 5, 15, 30 and 60 min of reaction to terminate the reaction. The positive control group was incubated with 1.00 μM Ketanserin, 0.5 mg/mL liver microsomal protein and 2.00 mM NADPH in a 37° C. incubator for 0, 5, 15, 30 and 60 min respectively, and then 135 μL of ice-cold acetonitrile was added to terminate the reaction. The 96-well plates were shaken at 600 rpm for 10 min and then centrifuged at 4700 rpm at 4° C. for 15 min. 80 μL of supernatant was mixed with 320 μL of pure water, and the remaining amount of the compound was detected by LC-MS/MS method. The in vitro half life (T½) and intrinsic clearance (CLint) were calculated according to the following formula:
(§7) Intrinsic clearance (Clint)=(0.693/T1/2)×(1/liver microsome concentration)×conversion factor. k is the linear regression slope of the remaining percentage of the ln compound-incubation time.

[4] = Stability in human liver microsomes; assay type: in vitro ADME; conditions: 0.5 mg/mL microsomal protein, 1.00 μM compound, NADPH; for half-life at 1 μM: human, liver microsomes, pH 7.4, Human, read-out: Half life T1/2, human liver microsomes
Experimental: as §3, §4, §5, §6, §7

[5] = Stability in dog liver microsomes; assay type: in vitro ADME; conditions: dog, liver microsomes, pH 7.4, Dog; 0.5 mg/mL microsomal protein, 1.00 μM compound, NADPH; read-out: Half life T1/2, dog liver microsomes
Experimental: as §3, §4, §5, §6, §7

Sequence of Menin/MLL-4-43 peptide interaction (O00255 whole entry, species assumed): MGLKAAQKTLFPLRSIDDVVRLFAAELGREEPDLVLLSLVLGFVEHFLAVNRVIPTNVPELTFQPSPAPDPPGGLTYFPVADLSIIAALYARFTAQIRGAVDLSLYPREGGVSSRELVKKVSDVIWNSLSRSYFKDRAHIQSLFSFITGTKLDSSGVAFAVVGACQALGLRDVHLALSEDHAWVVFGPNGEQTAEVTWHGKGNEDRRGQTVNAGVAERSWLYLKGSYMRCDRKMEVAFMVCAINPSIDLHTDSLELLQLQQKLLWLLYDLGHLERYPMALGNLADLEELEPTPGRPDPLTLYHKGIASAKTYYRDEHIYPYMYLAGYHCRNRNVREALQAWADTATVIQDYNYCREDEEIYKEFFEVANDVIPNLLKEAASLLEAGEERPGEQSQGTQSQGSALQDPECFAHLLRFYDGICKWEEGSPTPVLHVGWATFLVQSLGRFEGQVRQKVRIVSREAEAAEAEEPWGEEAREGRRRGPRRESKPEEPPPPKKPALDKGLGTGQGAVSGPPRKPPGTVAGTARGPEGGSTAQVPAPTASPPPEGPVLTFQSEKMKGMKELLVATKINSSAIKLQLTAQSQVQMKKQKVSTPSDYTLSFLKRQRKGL

SMILES | IC50 [1] | GI50 (MV4-11; 72 h) | GI50 (MOLM-13) | GI50 (OCI-AML3) | AUC(0-t) [2] | half-life [2] | Cmax [2] | F, % [2] | GI50 (MV4-11; Homo sapiens, MV4-11, 72 h) | half-life at 1 μM [3] | half-life at 1 μM [4] | half-life at 1 μM [5] | Half life T1/2, mouse liver microsomes ([3]; 0.5 mg/mL microsomal protein) | Half life T1/2, human liver microsomes ([4]; Human)
CC(C)N(C(=O)c1cc(F)ccc1Oc1cncnc1N1CC2(CCN(CC3CC4CCC3CC43CCC(=O)N3)CC2)C1)C(C)C (single isomer, unassigned) [Example 13-1b] | 33.4 nM | 55.2 nM | 63.3 nM | 31.2 nM | 7770 ng·h/mL | 230 min | 2010 ng/mL | 72% | – | – | – | – | – | –
CCN(C(=O)c1cc(F)ccc1Oc1nncnc1N1CC2(CCN(CC3CC4CCC3CC43CCC(=O)N3)CC2)C1)C(C)C (single isomer, unassigned) [Example 14-1a] | 49.2 nM | – | – | – | – | – | – | – | 86.1 nM | > 120 min | 57.3 min | – | – | –
[2H]C([2H])([2H])C1C[C@]2(CC[C@@H](CN3CCC4(CC3)CN(c3ncnnc3Oc3ccc(F)cc3C(=O)N(CC)C(C)C)C4)CC2)NC1=O (single isomer, unassigned) [Example 42-1] | 15.3 nM | – | 216 nM | 111 nM | – | – | – | – | 45.4 nM | > 120 min | 45.4 min | 79.9 min | – | –
[2H]C([2H])([2H])C1C[C@]2(CC[C@@H](CN3CCC4(CC3)CN(c3ncnnc3Oc3ccc(F)cc3C(=O)N(C(C)C)C(C)C)C4)CC2)NC1=O (single isomer, unassigned) [Example 43-1] | 12.4 nM | 27.8 nM | 133 nM | 92 nM | – | – | – | – | – | 70 min | 34.9 min | 35.4 min | – | –
CCN(C(=O)c1cc(F)ccc1Oc1nncnc1N1CC2(CCN(CC3CCC4(CC3)CN(C)C(=O)N4)CC2)C1)C(C)C (single isomer, unassigned) [Example 46-1] | 35.3 nM | – | 329 nM | 140 nM | – | – | – | – | 100 nM | > 120 min | 78.5 min | > 120 min | – | –
CC(C)N(C(=O)c1cc(F)ccc1Oc1nncnc1N1CC2(CCN(CC3CCC4(CC3)CN(C)C(=O)N4)CC2)C1)C(C)C (single isomer, unassigned) [Example 47-1] | 20.2 nM | – | – | – | – | – | – | – | 118 nM | > 120 min | 46.8 min | 77 min | – | –
CC(C)c1ncncc1-c1cc(F)ccc1Oc1cncnc1N1CC2(CN(CC3CCC4(CC3)OCCO4)C2)C1 [Control compound 1, reference compound] | 156 nM | 82.7 nM | – | – | – | – | – | – | – | – | – | – | 3.75 min | 4.77 min
CCN(C(=O)c1cc(F)ccc1Oc1cncnc1N1CC2(CCN(C[C@H]3CC[C@@]4(CCC(=O)N4)CC3)CC2)C1)C(C)C [Example 1] | – | – | 580 nM | 277 nM | 5290 ng·h/mL | 90.6 min | 2480 ng/mL | 79% | 76.2 nM | – | – | – | – | –
COCC1(COC)C[C@]2(CC[C@@H](CN3CCC4(CC3)CN(c3ncncc3Oc3ccc(F)cc3C(=O)N(C(C)C)C(C)C)C4)CC2)NC1=O [Example 18] | 6.3 nM | – | 12.8 nM | 21.2 nM | 4040 ng·h/mL | 80.4 min | 1960 ng/mL | 75% | 12.2 nM | – | – | – | – | –
CC(C)N(C(=O)c1cc(F)ccc1Oc1cncnc1N1CC2(CCN(C[C@H]3CC[C@]4(CC3)CC(C)(C)C(=O)N4)CC2)C1)C1CC1 [Example 23] | 12 nM | – | 157 nM | 77.9 nM | 2650 ng·h/mL | 151 min | 1510 ng/mL | 119% | 20 nM | 48.5 min | 36.3 min | – | – | –
CC(C)N(C(=O)c1cc(F)ccc1Oc1nncnc1N1CC2(CCN(CC3CCC4(CC3)COC(=O)N4)CC2)C1)C(C)C (stereo not drawn) [Example 49] | 42 nM | – | 110 nM | 108 nM | 2320 ng·h/mL | 66 min | 1350 ng/mL | 77% | 51.3 nM | – | – | – | – | –

Reference: patent publication US20250074910A1, “MENIN INHIBITOR AND USE THEREOF” (HITGEN INC., priority 2021, published 2025)
